In US20160067246A1, “USE OF PHOSPHODIESTERASE 5A INHIBITORS FOR THE TREATMENT OF MUSCULAR DYSTROPHY” (CEDARS-SINAI MEDICAL CENTER, priority 2013, published 2016):
Where “and” joins values, the source holds several entries; their conditions need not be identical. Equal values may be shown once. Read-outs that look alike come from different tables or passages of the source.

Assays:
Format in all cases: in vivo, human
[1] = test system: boys with Duchenne muscular dystrophy (DMD); experiment: Exercise-induced hyperemia: brachial artery blood flow by Doppler ultrasound and hemodynamics, rest and post handgrip; design: key to BA velocity: mean blood velocity in cm/s; Heart rate: unit not given here
Description: Subjects were studied in the supine position. Heart rate was measured continuously by electrocardiography, and blood pressure measured by automated oscillometric sphygomanometry using a child's cuff ([…] Monitor 300 Series). Brachial artery mean blood velocity (MBV) was measured from the exercising arm using pulsed-Doppler ultrasonography (Siemens iE33). Data were acquired continuously with a 9-MHz probe with a 60° angle of insonation, placed on the skin surface distal to the axilla. The ultrasound gate was optimized to ensure complete insonation of the entire vessel cross-section with constant intensity. The Doppler audio signal was converted to a real-time flow velocity signal using a validated Doppler audio converter,^8B and recorded using a PowerLab data acquisition system (ADInstruments, CO). Brachial artery diameter was measured by B-mode imaging in triplicate at rest. […] Brachial artery blood flow was calculated as MBV (cm/s)·πr^2·60, where r is radius of the brachial artery. […] exercise was performed with a dynamometer ([…] Dynamometer modified by Stoelting). To determine maximal voluntary contraction (MVC), each subject was asked to grip the dynamometer as hard as possible. […] Vascular conductance was calculated as forearm blood flow divided by mean arterial pressure. […] Patients then crossed over 2 weeks later for the opposite drug. […] Patients were queried about potential side-effects throughout the study visit. Baseline characteristics of patients and controls were compared using Student's t test. Exercise-induced attenuation of reflex vasoconstriction (functional sympatholysis) was assessed by comparing the LBNP-induced AHbO2+MbO2 (% TLS) at rest versus the LBNP-induced decrease in ΔHbO2+MbO2 during handgrip. Group differences in ΔHbO2+MbO2 were assessed using a Student's t test. The drug treatment effect on LBNP-induced Δ·HbO2+MbO2 (% TLS) at rest versus the LBNP-induced decrease in ΔHbO2+MbO2 during handgrip was compared to baseline for each patient using a Student's t test. The group difference in the % Δ in brachial artery blood flow was assessed using a student's t test. The drug treatment effect on the % Δ in brachial artery blood flow was compared using a student's t test. All analyses were performed in SigmaPlot. Data are expressed as mean±SEM, unless otherwise specified.

[2] = test system: boys with Duchenne muscular dystrophy (DMD); experiment: Safety data / side-effects of PDE5 inhibitors in boys with DMD
Description: Subjects were studied in the supine position. Heart rate was measured continuously by electrocardiography, and blood pressure measured by automated oscillometric sphygomanometry using a child's cuff (Welch Allyn Vital Signs Monitor 300 Series).
(§1) Patients received 0.5 mg/kg of oral sildenafil or tadalafil on day 1, followed by 1.0 mg/kg of sildenafil or tadalafil on day 2. Patients then crossed over 2 weeks later for the opposite drug. Experiments were performed 1 hour (sildenafil) or 3 hours (tadalafil) after oral treatment to match the experiment with the peak blood level. Patients were queried about potential side-effects throughout the study visit.

[3] = Pharmacokinetic study and drug blood levels in boys with DMD; conditions: for half-life: serum, oral, read-out: elimination half-life (converted)
Description: Serum blood samples for pharmacokinetic determinations were collected from patients at time 0-hr, 0.25-hr, 0.5-hr, 1-hr, 2-hr, 4-hr, 8-hr, and 24-hr following each treatment (sildenafil and tadalafil) and each dose (0.5 vs. 1.0 mg/kg). Blood levels were measured with high-performance liquid chromatography-tandem mass spectrometry (NMS Labs).
as §1

[4] = test system: patients with Becker muscular dystrophy (BMD); experiment: Blood pressure, heart rate and adverse events in BMD tadalafil trial
Description: Subjects were studied in the supine position. Heart rate was measured continuously by electrocardiography and BP by automated oscillometric sphygmomanometry ([…] Monitor 300 Series, […].). […] The order of tadalafil/placebo was random. The research pharmacist placed tadalafil tablets or lactose powder (placebo) in opaque capsules to blind patients and investigators, both for the test dose and study dose of drug or placebo. Patients were queried about potential tadalafil-specific side-effects both for safety monitoring and to assess whether blinding was maintained. tadalafil blood levels were measured using high performance liquid chromatography/tandem mass spectrometry (NMS Labs Willow Grove, Pa.).

[5] = Tadalafil blood levels by HPLC/tandem MS in BMD patients
Description: The order of tadalafil/placebo was random. The research pharmacist placed tadalafil tablets or lactose powder (placebo) in opaque capsules to blind patients and investigators, both for the test dose and study dose of drug or placebo. Patients were queried about potential tadalafil-specific side-effects both for safety monitoring and to assess whether blinding was maintained. tadalafil blood levels were measured using high performance liquid chromatography/tandem mass spectrometry (NMS Labs Willow Grove, Pa.).

CN1CC(=O)N2[C@H](c3ccc4c(c3)OCO4)c3[nH]c4ccccc4c3C[C@@H]2C1=O [tadalafil]
BA VC (vascular conductance) ([1]; 0.5 mg/kg, Post-exercise): 2.6 ± 0.4 ml/min/mmHg
BA blood flow ([1]; 0.5 mg/kg, Post-exercise): 184 ± 24 mL/min
BA velocity ([1]; 0.5 mg/kg, Post-exercise): 38 ± 5
Heart rate ([1]; 0.5 mg/kg, Post-exercise): 94 ± 3
MAP ([1]; 0.5 mg/kg, Post-exercise): 72 ± 2 mmHg
BA VC (vascular conductance) ([1]; 0.5 mg/kg, Rest): 1.7 ± 0.3 ml/min/mmHg
BA blood flow ([1]; 0.5 mg/kg, Rest): 118 ± 15 mL/min
BA velocity ([1]; 0.5 mg/kg, Rest): 26 ± 4
Heart rate ([1]; 0.5 mg/kg, Rest): 91 ± 3
MAP ([1]; 0.5 mg/kg, Rest): 74 ± 3 mmHg
BA VC (vascular conductance) ([1]; 1.0 mg/kg, Post-exercise): 2.5 ± 0.3 ml/min/mmHg
BA blood flow ([1]; 1.0 mg/kg, Post-exercise): 170 ± 17 mL/min
BA velocity ([1]; 1.0 mg/kg, Post-exercise): 35 ± 4
Heart rate ([1]; 1.0 mg/kg, Post-exercise): 92 ± 4
MAP ([1]; 1.0 mg/kg, Post-exercise): 71 ± 3 mmHg
BA VC (vascular conductance) ([1]; 1.0 mg/kg, Rest): 1.5 ± 0.3 ml/min/mmHg
BA blood flow ([1]; 1.0 mg/kg, Rest): 104 ± 14 mL/min
BA velocity ([1]; 1.0 mg/kg, Rest): 21 ± 3
Heart rate ([1]; 1.0 mg/kg, Rest): 91 ± 3
MAP ([1]; 1.0 mg/kg, Rest): 71 ± 2 mmHg
duration of (penile) erection in an individual patient ([2]; higher dose 1.0 mg/kg): 4 h
duration of (penile) erection in an individual patient ([2]; low dose 0.5 mg/kg, 0.5 mg/kg): > 4 h and 3 h and 6 h
peak blood level ([3]; boys with DMD, 1.0 mg/kg oral): 492.5 ± 47.3 ng/mL
time of peak blood level after oral administration ([3]; boys with DMD, 0.5 and 1.0 mg/kg oral): 2 to 4 h
time the drug remained elevated in the blood ([3]; male, human, in vivo, po): up to 24 hours
half-life ([3]; male, human, boys with DMD, 0.5 mg/kg dose): 24.9 ± 3.1 h
half-life ([3]; male, human, boys with DMD, 1.0 mg/kg dose): 39.5 ± 6.6 h
adverse events or side-effects ([4]; 10 mg test dose and 20 mg study dose): no adverse events or side-effects
diastolic blood pressure post-tadalafil ([4]; post-tadalafil (pre 72±2), P>0.05): 73±3 mm Hg
heart rate post-tadalafil ([4]; post-tadalafil (pre 84±4), P>0.05): 80±4 beats per minute
systolic blood pressure post-tadalafil ([4]; post-tadalafil (pre 116±3), P>0.05): 114±4 mmHg
peak blood concentration of tadalafil in patient P10 (no sympatholysis) ([5]; BMD patient P10, 20 mg oral): 300 ng/mL
peak tadalafil blood concentration, mean ([5]; BMD patients, 20 mg oral): 260 ± 13 ng/mL
peak tadalafil blood concentrations, range ([5]; BMD patients, 20 mg oral): 170 to 310 ng/mL
